≈ marks a conversion by molar mass, not a printed value. Counter-ions that a name gives are not always drawn. Like-named read-outs stand apart in the source and are kept apart here.
Legend:
Assay type in all cases: cell-based
[1] = test system: S. aureus Smith; test: MIC, antibacterial spectrum (aerobic bacteria); settings: Staphylococcus aureus; S. aureus Smith, Gram +, 10^6 cells/ml, aerobic; read-out: MIC
[2] = test system: S. pyogenes IID 689 (S-8); test: MIC, antibacterial spectrum (aerobic bacteria); settings: Streptococcus pyogenes, IID689; S. pyogenes IID 689 (S-8), Gram +, 10^6 cells/ml, aerobic; read-out: MIC
[3] = test system: Escherichia coli NIHJ JC-2; test: MIC, antibacterial spectrum (aerobic bacteria); settings: NIHJJC2, Escherichia coli NIHJ JC-2, Gram -, 10^6 cells/ml
[4] = test system: P. mirabilis IID 994; test: MIC, antibacterial spectrum (aerobic bacteria); settings: Proteus mirabilis, IID994; P. mirabilis IID 994, Gram -, 10^6 cells/ml, aerobic; read-out: MIC
[5] = test system: Enterobacter cloacae IID 977; test: MIC, antibacterial spectrum (aerobic bacteria); settings: IID977
[6] = test system: Citrobacter freundii IID 976; test: MIC, antibacterial spectrum (aerobic bacteria); settings: IID976; Citrobacter freundii IID 976, Gram -, 10^6 cells/ml, aerobic; read-out: MIC
[7] = test system: Salmonella enteritidis IID 604; test: MIC, antibacterial spectrum (aerobic bacteria); settings: Salmonella enterica; Salmonella enteritidis IID 604, Gram -, 10^6 cells/ml, aerobic; read-out: MIC
[8] = test system: Yersinia enterocolitica IID 981; test: MIC, antibacterial spectrum (aerobic bacteria); settings: IID981; Yersinia enterocolitica IID 981, Gram -, 10^6 cells/ml, aerobic; read-out: MIC
[9] = test system: P. aeruginosa IID 1210; test: MIC, antibacterial spectrum (aerobic bacteria); settings: Pseudomonas aeruginosa, IID1210; P. aeruginosa IID 1210, Gram -, 10^6 cells/ml, aerobic; read-out: MIC
[10] = test system: P. cepacia GIFU 518; test: MIC, antibacterial spectrum (aerobic bacteria); settings: Burkholderia cepacia, GIFU518; P. cepacia GIFU 518, Gram -, 10^6 cells/ml, aerobic; read-out: MIC
[11] = test system: P. maltophilia GIFU 2491; test: MIC, antibacterial spectrum (aerobic bacteria); settings: Stenotrophomonas maltophilia, GIFU2491; P. maltophilia GIFU 2491, Gram -, 10^6 cells/ml, aerobic; read-out: MIC
[12] = test system: Alcaligenes faecalis 0114002; test: MIC, antibacterial spectrum (aerobic bacteria); settings: Alcaligenes faecalis 0114002, Gram -, 10^6 cells/ml
[13] = test system: Bacteroides fragilis GM 7000; test: MIC, antibacterial spectrum (anaerobic bacteria); settings: GM7000; Bacteroides fragilis GM 7000, Gram -, 10^6 cells/ml, anaerobic; read-out: MIC
[14] = test system: B. distasonis 8503; test: MIC, antibacterial spectrum (anaerobic bacteria); settings: Parabacteroides distasonis; B. distasonis 8503, Gram -, 10^6 cells/ml, anaerobic; read-out: MIC
[15] = test system: Eubacterium lentum GAI 5242; test: MIC, antibacterial spectrum (anaerobic bacteria); settings: Eggerthella lenta, GAI5242; Eubacterium lentum GAI 5242, Gram +, 10^6 cells/ml, anaerobic; read-out: MIC
[16] = test system: Propionibacterium acens 11828; test: MIC, antibacterial spectrum (anaerobic bacteria); settings: Propionibacterium acens 11828, Gram +, 10^6 cells/ml, anaerobic; read-out: MIC
[17] = test system: Clostridium difficile I-E; test: MIC, antibacterial spectrum (anaerobic bacteria); settings: Clostridioides difficile, Gram +, 10^6 cells/ml
[18] = test system: Pst. micros UPI 5464-1; test: MIC, antibacterial spectrum (anaerobic bacteria); settings: Parvimonas micra, UPI54641, Pst. micros UPI 5464-1, Gram +, 10^6 cells/ml
[19] = test system: P. cepacia KY 84; test: MIC, antibacterial spectrum (aerobic bacteria); settings: Burkholderia cepacia, KY84, P. cepacia KY 84, Gram -, 10^6 cells/ml
[20] = Enterobacter cloacae IID 977, Gram -, 10^6 cells/ml, aerobic, read-out: MIC

Row | Compound | MIC [1] | MIC [2] | MIC [3] | MIC [4] | MIC [5, 20] | MIC [6] | MIC [7] | MIC [8] | MIC [9] | MIC [10] | MIC [11] | MIC [12] | MIC [13] | MIC [14] | MIC [15] | MIC [16] | MIC [17] | MIC [18] | MIC ([5]; Enterobacter cloacae) | MIC [19]
1 | O=C(O)c1cn(C2CC2)c2c(Cl)c(N3CCC(CNCCO)C3)c(F)cc2c1=O (stereo not shown) [Exp. 3, 8-Chloro-1-cyclopropyl-6-fluoro-1,4-dihydro-7-(3-(2-hydroxyethylaminomethyl)-1-pyrrolidinyl]-4-oxo-3-quinolinecarboxylic acid] | 0.0125 µg/mL (≈ 0.0295 µM) | 0.0125 µg/mL (≈ 0.0295 µM) | 0.0125 µg/mL (≈ 0.0295 µM) | 0.05 µg/mL (≈ 0.118 µM) | 0.1 µg/mL (≈ 0.236 µM) | 0.05 µg/mL (≈ 0.118 µM) | 0.1 µg/mL (≈ 0.236 µM) | 0.1 µg/mL (≈ 0.236 µM) | 1.56 µg/mL (≈ 3.68 µM) | 1.56 µg/mL (≈ 3.68 µM) | 0.2 µg/mL (≈ 0.472 µM) | 0.39 µg/mL (≈ 0.92 µM) | 0.39 µg/mL (≈ 0.92 µM) | 0.78 µg/mL (≈ 1.84 µM) | 0.2 µg/mL (≈ 0.472 µM) | 0.78 µg/mL (≈ 1.84 µM) | 0.2 µg/mL (≈ 0.472 µM) | 0.1 µg/mL (≈ 0.236 µM) |  | 
2 | O=C(O)c1cn(C2CC2)c2cc(N3CCC(CNCCO)C3)c(F)cc2c1=O (stereo not drawn) [Exp. 2, l-Cyclopropyl-6-fluoro-l,4-dihydro-7-[3-(2-hydroxyethylaminomethyl)-l-pyrrolidinyl]-4-oxo-3-quinolinecarboxylic acid hydrochloride] | 0.39 µg/mL | 0.1 µg/mL | 0.1 µg/mL | 0.39 µg/mL |  | 0.39 µg/mL | 0.39 µg/mL | 0.78 µg/mL | 6.25 µg/mL |  |  | 6.25 µg/mL | 100 µg/mL |  | 3.13 µg/mL | 3.13 µg/mL | 25 µg/mL | 3.13 µg/mL | 1.56 µg/mL | 
3 | O=C(O)c1cn(C2CC2)c2c(F)c(N3CCC(CNCCO)C3)c(F)cc2c1=O (stereo not shown) [Exp. 1, 1-Cyclopropyl-6,8-difluoro-1,4-dihydro-7-[3-(2-hydroxyethylaminomethyl)-1-pyrrolidinyl]-4-oxo-3-quinolinecarboxylic acid] | 0.05 µg/mL (≈ 0.123 µM) | 0.025 µg/mL (≈ 0.0614 µM) | 0.025 µg/mL (≈ 0.0614 µM) | 0.05 µg/mL (≈ 0.123 µM) | 0.2 µg/mL (≈ 0.491 µM) | 0.05 µg/mL (≈ 0.123 µM) | 0.1 µg/mL (≈ 0.245 µM) | 0.2 µg/mL (≈ 0.491 µM) | 1.56 µg/mL (≈ 3.83 µM) |  |  | 0.78 µg/mL (≈ 1.91 µM) | 1.56 µg/mL (≈ 3.83 µM) |  | 0.78 µg/mL (≈ 1.91 µM) | 0.78 µg/mL (≈ 1.91 µM) | 0.78 µg/mL (≈ 1.91 µM) | 0.39 µg/mL (≈ 0.957 µM) |  | 3.13 µg/mL (≈ 7.68 µM)

Source: patent EP0221541A2, “Quinolonecarboxylic acid derivatives and their preparation” (KYORIN PHARMACEUTICAL CO., LTD., priority 1985, dated 1987)
